The values below come from patent US11612605B2, “(+)-azasetron for use in the treatment of ear disorders” (SENSORION, priority 2016, dated 2023).

The test system of data set [1] is unilateral vestibular dysfunction induced by intratympanic kainic injection. Description: Kainate model of peripheral excitotoxic vestibular injury: spontaneous nystagmus and roll angle deviation. The class given is in vivo, female Long-Evans. The conditions noted are these: 5.6 mg/kg intraperitoneal daily for 3 days. On the procedure: The capacity of (+)-azasetron besylate to protect against lesions in the peripheral vestibular system was assessed using the kainate model of peripheral excitotoxic injury. Following unilateral, transtympanic injection of the excitotoxic kainic acid leading to the swelling, retraction and uncoupling of synapses between vestibular sensory hair cells and primary afferent neurons, baseline recordings of spontaneous nystagmus (pathological eye movements caused by a deficit of the vestibuloculomotor reflex) and postural deviations are performed before randomization to treatment groups. Recordings were repeated daily for 3 days, then again at D6 and D13 after lesion induction.
Following lesion induction and baseline recordings at t=1h, female Long-Evans were randomized to receive intraperitoneal injections of placebo (n=18) or 5.6 mg/kg (+)-azasetron besylate daily for 3 days (t=1/24/[…]). Recording of spontaneous nystagmus and postural deviations were repeated at 2/4/6/24/25/48/49 hours and D6/D13 after initial lesion induction (FIG. 9).

For data set [2], the system named is cochlear outer hair cells (OHC). Description: Outer hair cell survival after cisplatin (cochleograms from whole-mount fixed cochleae). The class given is in vivo, female Wistar rats. The conditions noted are these: 14 days of treatment after cisplatin.
Experimental: Two days after baseline audiometry (ABR and DPOAE measurements), oral treatment was initiated in both groups 15 minutes before 8 mg/kg cisplatin infusion during 30 minutes under isoflurane anesthesia. On D14, ABR and DPOAE measurements were performed to evaluate ABR threshold shifts and DPOAE amplitude loss relative to baseline and the temporal bones of each animal were subsequently preserved with PFA fixation for histology (FIG. 5).
To evaluate the effect of (+) azasetron on outer hair cells (OHC) survival after cisplatin administration at an ototoxic dose, cochleograms of surviving OHCs were constructed from whole-mount fixed cochleae.
The nature of data set [3]: Pharmacokinetics study: exposure in inner ear, perilymph and tail plasma after single oral dose. As to conditions: for AUC: po, 10 mg/kg, 10 mg/kg p.o., per-interval AUC of azasetron free-base. The class given is in vivo, Wistar rats. The text has this: The 72 male Wistar rats received on 28 Jan. 2016 from Janvier (Janvier, Le Genest-St-Isle) were assigned to the study. They were divided in 3 groups of 24 animals each, one group per test article. Each group was divided in […] subgroups according to the 6-termination time-points.
72 Wistar rats were subjected to oral single dose administration of the test article, racemic azasetron hydrochloride, azasetron hydrochloride (+) or azasetron hydrochloride (−), and sacrificed at different time-points to assess the exposure of the test article in the inner ear, perilymph, and plasma. • Group racemic azasetron: 24 male Wistar, 4 rats per time-point: 10 mg/kg azasetron HCl dissolved in NaCl 0.9%. Administrated as 5 mL/kg p.o.; • Group azasetron (+): 24 male Wistar, 4 rats per time-point: 10 mg/kg (+)-azasetron HCl dissolved in NaCl 0.9%. Administrated as 5 mL/kg p.o.; • Group azasetron (−): 24 male Wistar, 4 rats per time-point: 10 mg/kg (−)-azasetron HCl dissolved in NaCl 0.9%. Administrated as 5 mL/kg p.o.
There were 6 termination time-points for each test article. At time-points 15/30/60/120/240/480 minutes after administration: peripheral plasma from the tail was sampled. The animals were sacrificed by i.v. administration of 0.25 mL/rat of a 160 mg/mL pentobarbital solution. Following sacrifice, the heart blood and both tympanic bullas (left and right) were sampled.
Both tympanic bullas (left and right) were collected, however, only the left one was used for the perilymph and inner ear analysis. The right bulla was stored at −20° C. for future needs when required. For animal IDs 1 and 4, the right bulla was used for the sampling of perilymph and inner ear.
The left bulla was dissected fresh. Briefly, the bulla was opened via the auditory opening to reveal the bone surrounding the cochlea after which the tip of the bone was removed with forceps and a 10 μL pipette tip was inserted to withdraw perilymph.
Upon exposure of the tip of the cochlea, 2 μL of perilymph (fluid) could be recovered from the bulla. The perilymph was brought to 10 μL by the addition of 8 μL water, and then extract via the addition of 30 μL of acetonitrile. After that, the samples were centrifuged and the supernatant was transferred to a glass vial appropriate for the HPLC-MS auto-sampler.
Following recovering of the perilymph, the bones of the inner ear and cochlea components were removed with fine forceps and added to a tared Eppendorf tube. The collection was weighed and brought to 10 mg with the addition of water and placed on ice until extraction. 30 μL of acetonitrile was added and the tubes were incubated in an ultrasound bath, after which they were centrifuged and the supernatant was transferred to a glass vial appropriate for the HPLC-MS auto-sampler. In the process or removing the bones of the inner ear, they were finely distributed in the media and broken by forceps. (Due to the very low volume of the tissue and its fine structure, separate grinding is considered risky vs the potential losses to plastic and media. The materials are very fine in nature and the bone particles are small thus providing only short interfaces to media. The absence of fat and the incubation in solvent is intended to provide sufficient solubility of active ingredient).
The acetonitrile used in the sample preparation for bio-analysis contained the internal standard for the HPLC-MS analysis.
30 μL acetonitrile including the internal standard were added to each 10 μL plasma sample. After adding the acetonitrile, the samples were mixed by vortex and further centrifuged. The supernatant was transferred to a glass vial appropriate for the HPLC-MS auto-sampler.
The LC system comprised an Agilent 1260 liquid chromatography equipped with a binary pump and a column oven, together with a PAL HTS-xt auto-sampler. It is linked to the AB SCIEX TRIPLE QUADTM 4500 (triple-quadrupole) instrument with an ESI interface and a switching valve integrated (Mass spectrometric analysis). […]

Like-named read-outs stand apart in the source and are kept apart here.

As for `CN1C(=O)COc2c(C(=O)NC3CN4CCC3CC4)cc(Cl)cc21.O=S(=O)(O)c1ccccc1` (single isomer, unassigned; (+)) [(+)-azasetron besylate], the “improvement (reduction) of roll angle deviation (postural head tilt) versus placebo” value in data set [1] (p<0.001) is recorded as 30-62%. For the same compound, in data set [1] (p=0.048), the “improvement of spontaneous nystagmus versus placebo” value is 6-48%. Further, the “conservation of OHCs in the basal turn of the cochlea versus placebo” value in data set [2] was “up to 11 fold”. Moreover, in data set [2] (p<0.001), the “number of surviving OHCs versus placebo” value was “significantly higher”.

As for `CN1C(=O)COc2c(C(=O)N[C@@H]3CN4CCC3CC4)cc(Cl)cc21` [(−)-azasetron], the “Total AUC Inner ear” value in data set [3] (10 mg/kg p.o. single dose) was determined as 27829 nM·min. In addition, the “Total AUC Perilymph” value in data set [3] (10 mg/kg p.o. single dose) stood at 11901 nM·min. Besides, the “Total AUC Tail plasma” value in data set [3] (10 mg/kg p.o. single dose) came to 65448 nM·min. Besides, the concentration at 15 min in data set [3] (male, Wistar, rat, inner ear, oral, 10 mg/kg p.o. single dose, Time 15 (min), read-out: Average Inner ear concentration (ng azasetron free-base/g tissue)) is 29 ng/g. Further, the concentration at 30 min in data set [3] (male, Wistar, rat, inner ear, oral, 10 mg/kg p.o. single dose, Time 30 (min), read-out: Average Inner ear concentration (ng azasetron free-base/g tissue)) came out at 27 ng/g. Moreover, the concentration at 60 min in data set [3] (male, Wistar, rat, inner ear, oral, 10 mg/kg p.o. single dose, Time 60 (min), read-out: Average Inner ear concentration (ng azasetron free-base/g tissue)) was 8 ng/g. Besides, the concentration at 120 min in data set [3] (male, Wistar, rat, inner ear, oral, 10 mg/kg p.o. single dose, Time 120 (min), read-out: Average Inner ear concentration (ng azasetron free-base/g tissue)) came to 46 ng/g. Further, the concentration at 240 min in data set [3] (male, Wistar, rat, inner ear, oral, 10 mg/kg p.o. single dose, Time 240 (min), read-out: Average Inner ear concentration (ng azasetron free-base/g tissue)) came out at 21 ng/g. Further, the concentration at 480 min in data set [3] (male, Wistar, rat, inner ear, oral, 10 mg/kg p.o. single dose, Time 480 (min), read-out: Average Inner ear concentration (ng azasetron free-base/g tissue)) was found to be 3 ng/g. Moreover, the AUC was 0.0102 µM·h in data set [3] (male, Wistar, rat, inner ear, Time 15 (min), read-out: Inner ear AUC (converted)); 0.0198 µM·h in data set [3] (male, Wistar, rat, inner ear, Time 30 (min), read-out: Inner ear AUC (converted)); 0.0247 µM·h in data set [3] (male, Wistar, rat, inner ear, Time 60 (min), read-out: Inner ear AUC (converted)); 0.0772 µM·h in data set [3] (male, Wistar, rat, inner ear, Time 120 (min), read-out: Inner ear AUC (converted)); 0.193 µM·h in data set [3] (male, Wistar, rat, inner ear, Time 240 (min), read-out: Inner ear AUC (converted)); 0.139 µM·h in data set [3] (male, Wistar, rat, inner ear, Time 480 (min), read-out: Inner ear AUC (converted)). The AUC in data set [3] (male, Wistar, rat, perilymph, Time 15 (min), read-out: Perilymph AUC (converted)) is 0.00507 µM·h; in data set [3] (male, Wistar, rat, perilymph, Time 30 (min), read-out: Perilymph AUC (converted)) it was 0.0102 µM·h; in data set [3] (male, Wistar, rat, perilymph, Time 60 (min), read-out: Perilymph AUC (converted)), 0.015 µM·h; in data set [3] (male, Wistar, rat, perilymph, Time 120 (min), read-out: Perilymph AUC (converted)), 0.0363 µM·h; in data set [3] (male, Wistar, rat, perilymph, Time 240 (min), read-out: Perilymph AUC (converted)), 0.0747 µM·h; in data set [3] (male, Wistar, rat, perilymph, Time 480 (min), read-out: Perilymph AUC (converted)) it was 0.0571 µM·h. Besides, the AUC was 0.0203 µM·h in data set [3] (male, Wistar, rat, tail plasma, Time 15 (min), read-out: Tail plasma AUC (converted)); 0.034 µM·h in data set [3] (male, Wistar, rat, tail plasma, Time 30 (min), read-out: Tail plasma AUC (converted)); 0.0515 µM·h in data set [3] (male, Wistar, rat, tail plasma, Time 60 (min), read-out: Tail plasma AUC (converted)); 0.17 µM·h in data set [3] (male, Wistar, rat, tail plasma, Time 120 (min), read-out: Tail plasma AUC (converted)); 0.416 µM·h in data set [3] (male, Wistar, rat, tail plasma, Time 240 (min), read-out: Tail plasma AUC (converted)); 0.4 µM·h in data set [3] (male, Wistar, rat, tail plasma, Time 480 (min), read-out: Tail plasma AUC (converted)).
